From patent publication US20170112941A1, “VE-CADHERIN BINDING BIOCONJUGATE” (Symic IP, LLC, priority 2015, published 2017)
Ends that are not written are not given here. * marks the point of attachment. NHNH2 = NN*

Assays:
HUVECs = test: HUVEC culture, thrombin challenge, pMLC/phalloidin fluorescence imaging; assay type: cell-based, human; conditions: thrombin 1 U/mL, eHep-Bbeta 100 μg/mL, 10 minutes at 37° C., FIG. 3
Procedure: HUVECs were grown to confluence in 24-well tissue culture treated plates (10000 cells per cm^2) for 3 days. The cells were cultured in vascular basal medium (ATCC, prod# PCS-100-030) supplemented with 0.2% bovine brain extract (BBE), 10 mM L-glutamine, 5 U/mL heparin sodium, 1 μg/mL hydrocortisone hemisuccinate, 50 μg/mL ascorbic acid, and 20% fetal bovine serum. The wells were washed three times with 1× phosphate buffered saline (PBS), and then were treated with medium alone, medium supplemented with thrombin at 1 U/mL, medium supplemented with thrombin at 1 U/mL and eHep-Bbeta at 100 μg/mL, medium supplemented with thrombin at 1 U/mL and heparin at 100 μg/mL for 10 minutes at 37° C. The wells were then washed three times with 1×PBS. Each wash was for 5 minutes. The cells were then fixed using 4% formalin in 1×PBS for 15 minutes at room temperature, washed four times with 1×PBS (each wash was for 10 minutes). Blocking buffer containing 5% normal goat serum, and 0.3% Triton-X 100 in 1×PBS was prepared and 500 μL was added to each well. Blocking was done for 1 hour at room temperature. Antibody dilution buffer containing 1% BSA, and 0.3% Triton-X 100 in 1×PBS was prepared. 200 μL of Rabbit anti pMLC diluted 1:50 using antibody dilution buffer was added to each well and incubated overnight at 4° C. […] The wells were then imaged using an EVOS fluorescence microscope.

[1] = target: T1, Recombinant VE cadherin/Fc chimera (Homo sapiens, UniProt P33151); test: VE-Cadherin Binding Assay (plate ELISA with biotinylated molecule, streptavidin-HRP)
T1 construct: purchased R&D systems 938-VC
T1 sequence (P33151 with tags, fused parts or gaps limits assumed): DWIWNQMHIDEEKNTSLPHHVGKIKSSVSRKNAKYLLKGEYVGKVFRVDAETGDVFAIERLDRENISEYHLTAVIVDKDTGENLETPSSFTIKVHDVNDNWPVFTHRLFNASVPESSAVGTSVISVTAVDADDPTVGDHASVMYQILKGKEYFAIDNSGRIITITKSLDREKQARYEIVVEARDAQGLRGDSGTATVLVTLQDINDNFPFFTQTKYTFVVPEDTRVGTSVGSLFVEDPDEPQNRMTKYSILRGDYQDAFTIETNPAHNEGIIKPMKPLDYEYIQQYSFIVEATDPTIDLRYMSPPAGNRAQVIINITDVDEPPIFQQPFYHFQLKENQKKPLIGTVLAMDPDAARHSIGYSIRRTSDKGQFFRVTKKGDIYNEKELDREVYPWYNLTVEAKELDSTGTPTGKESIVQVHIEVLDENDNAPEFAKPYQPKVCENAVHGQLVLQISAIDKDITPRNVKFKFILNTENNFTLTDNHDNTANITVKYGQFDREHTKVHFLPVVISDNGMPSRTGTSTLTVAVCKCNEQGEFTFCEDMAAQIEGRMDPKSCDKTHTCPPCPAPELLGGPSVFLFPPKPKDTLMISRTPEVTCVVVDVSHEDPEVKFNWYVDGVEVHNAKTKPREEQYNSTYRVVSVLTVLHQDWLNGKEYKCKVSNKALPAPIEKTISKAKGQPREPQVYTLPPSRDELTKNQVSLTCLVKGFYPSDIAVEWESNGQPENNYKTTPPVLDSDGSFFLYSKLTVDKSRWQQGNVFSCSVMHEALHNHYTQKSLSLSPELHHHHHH
Procedure: Recombinant VE cadherin/Fc chimera (R&D systems, Prod#938-VC) was prepared in 1× Phosphate Buffered Saline (PBS, Gibco, pH 7.4) at 5 μg/mL. 50 μL of this solution was incubated in each well of Costar high bind plate (Prod #9018) overnight at 4° C. The plate was washed three times with PBS. VE-cadherin coated wells were blocked using 0.5% non-fat dry milk and 50 μg/mL heparin sodium in 1×PBS. Blocked plates were then treated with a concentration gradient of eHep-Bbeta (biotinylated) molecule (eHep-Bbeta, 1:8:50). The eHep-Bbeta was dissolved in Tris-NaCl—CaCl2 at 1 mg/mL, serial dilution (1:3) 50 μL 2 hour RT. At the end of the incubation plate was washed three times with PBS.
Ultra-Streptavidin HRP (ThermoFisher Scientific, Prod# N504) was diluted 1:500 using 1% BSA, 1×PBS and 0.05% tween was used to detect the biotinylated molecule bound to rh VE-cadherin coated plates. 100 μL of streptavidin solution was incubated in each well for 20 minutes at RT. The plate was washed three times with 1×PBS. 100 μL of TMB substrate solution (Abcam, slowest kinetic rate) was added to each well and developed for 20 minutes in the dark. 25 μL of stop solution (0.64 M H2SO4 in water) was added to stop the reaction and absorbance was read using Molecular Device i3 at 450 nm.
This assay may be used to determine the binding affinity of the bioconjugates as well as the peptides alone.

[2] = system: acute renal ischemic model; test: Renal Ischemia Reperfusion (acute renal ischemic model); assay type: in vivo; conditions: rat
Procedure: Kidney damage was assessed by measuring serum creatinine levels 24 hours post procedure, and by creatinine clearance measured at 24 hours and 7 days post procedure. In this study, the ischemia time was reduced here to produce a more moderate injury, and the bioconjugate was delivered to the femoral vein, rather than directly to the renal artery, in order to reduce procedure time. See, Verma, et al. “Renal Endothelial Injury and Microvascular Dysfunction in Acute Kidney Injury.” Seminars in nephrology. Vol. 35. No. 1. WB Saunders, 2015 and Urbschat, et al. “Combined peri-ischemic administration of BP 15-42 in treating ischemia reperfusion injury of the mouse kidney.” Microvascular research 101 (2015): 48-54. All test articles were formulated in 1×PBS at 5 mg/mL and 500 μL were delivered for an approximate dose of 10 mg/kg. 1.4. […] Animals were closed and monitored during recovery for 24 hours. • 1.5.8. […] If creatinine clearance was positive in the positive control or test article at 7 days, the animal was survived until day 28, at which point creatinine clearance was again be measured. […] Serum creatinine was measured in each animal at baseline (prior to procedure) and 24 hours post-procedure. • 1.7. Creatinine clearance was measured at 1 and 7 days post procedure. • 1.8. […] Serum creatinine and creatinine clearance levels measured at 24 hours was compared between groups using an unpaired t-test. […]

“eHep-Bbeta: Heparin (MWavg 16 kDa) coupled by EDC to Bbeta peptide GHRPLDKKREEAPSLRPAPPPISGGGYR(GSG)-hydrazide; about 3.7 peptides/heparin (GHRPLDKKREEAPSLRPAPPPISGGGYRGSG-NHNH2; also: coupled by EDC to heparin (MWavg 16 kDa), about 3.7 peptides/heparin, attachment site not given here)” was tested, and the “endothelial cell barrier function” value (HUVECs) was “preserves endothelial cell barrier function”, the “effect of Tris-NaCl-CaCl2 buffer on molecule binding to VE-cadherin” value ([1]; Tris-NaCl-CaCl2 buffer) was “enhances molecule binding significantly” and the “binding to VE-cadherin” value ([1]; biotinylated eHep-Bbeta (1:8:50), 1 mg/mL in Tris-NaCl-CaCl2, serial dilution 1:3, 2 hour RT, absorbance 450 nm, FIG. 2) was “binds to VE-cadherin in a dose dependent manner”. The “protection from renal damage upon reperfusion, compared with active control (peptide alone)” value ([2]; 30 minutes ischemia, approximate dose 10 mg/kg into femoral vein immediately after clamp removal, FIG. 4) was “protects from renal damage upon reperfusion better than active control (peptide alone)” and the “kidney damage (serum creatinine 24 hours, creatinine clearance 24 hours and 7 days post procedure)” value ([2]; treatment immediately following renal reperfusion, approximate dose 10 mg/kg, femoral vein) was “inhibits kidney damage”.
